Reference: US4308256A, “Method of inducing analgesia” (American Home Products Corporation, priority 1980, dated 1981)

How the values were obtained:
male Charles River rats = assay: D'Amour-Smith rat tail-flick procedure (radiant heat, 8 second cut-off), intraventricular injection; type: in vivo
Method: Intraventricular cannulae, made of 27-gauge stainless steel tubing, are implanted in 300-400 g. male Charles River rats under pentobarbital anesthesia. After a recovery period of at least one week, the rats are restrained in a wire-mesh cylindrical chamber so that the tip of the tail can be positioned at the focal point of a radiant heat source. After an acclimatistation period of 5 minutes, the lamp is turned on and an electric clock activated. Movement of the tip of the tail exposes a photocell to the lamp, which turns off the thermal stimulus and stops the clock. If a rat fails to move its tail within 8 seconds, the heat is automatically turned off to prevent blistering. The intensity of the lamp is adjusted in each case to produce at least three baseline tail-flick latencies of 2.5-4.5 seconds. Tests are initially made every 2 minutes, then every 5 minutes and finally every 15 minutes.
Initially, using the above outlined procedure, the effects of intraventricularly administered leucine-enkephalin are tested in rats according to the above procedure.
The rat tail flick procedure is repeated, first by the simultaneous intraventricular injection of both leucine-enkephalin and bestatin and then by the initial injection of bestatin followed one hour later by the injection of leucine-enkephalin.
The above procedure is repeated again, however, the bestatin is administered first and then one hour later the leucine-enkephalin is administered.
The effects of bestatin alone are tested in rats according to the rat tail flick procedure.

aminopeptidase B = aminopeptidase B (Homo sapiens, UniProt Q9H4A4); settings: cited from earlier work
leucine aminopeptidase = settings: cited from earlier work
bleomycin hydrolase = biological target: T1, bleomycin hydrolase (Homo sapiens, UniProt Q13867); settings: cited from earlier work
T1 sequence (Q13867 1-455): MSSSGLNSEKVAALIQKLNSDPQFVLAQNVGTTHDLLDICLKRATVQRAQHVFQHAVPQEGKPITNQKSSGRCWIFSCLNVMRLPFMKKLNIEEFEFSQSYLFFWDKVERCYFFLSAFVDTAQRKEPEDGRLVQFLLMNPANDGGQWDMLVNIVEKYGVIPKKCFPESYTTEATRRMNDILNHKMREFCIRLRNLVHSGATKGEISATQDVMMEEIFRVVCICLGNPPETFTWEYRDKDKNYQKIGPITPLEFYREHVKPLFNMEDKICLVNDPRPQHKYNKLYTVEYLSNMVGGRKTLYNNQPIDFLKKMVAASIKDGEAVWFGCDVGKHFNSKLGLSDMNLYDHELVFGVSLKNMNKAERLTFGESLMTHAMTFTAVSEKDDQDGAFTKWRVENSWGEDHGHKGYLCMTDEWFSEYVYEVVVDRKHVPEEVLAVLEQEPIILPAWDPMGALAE

aminopeptidase B, sequence (Q9H4A4 whole entry, species assumed): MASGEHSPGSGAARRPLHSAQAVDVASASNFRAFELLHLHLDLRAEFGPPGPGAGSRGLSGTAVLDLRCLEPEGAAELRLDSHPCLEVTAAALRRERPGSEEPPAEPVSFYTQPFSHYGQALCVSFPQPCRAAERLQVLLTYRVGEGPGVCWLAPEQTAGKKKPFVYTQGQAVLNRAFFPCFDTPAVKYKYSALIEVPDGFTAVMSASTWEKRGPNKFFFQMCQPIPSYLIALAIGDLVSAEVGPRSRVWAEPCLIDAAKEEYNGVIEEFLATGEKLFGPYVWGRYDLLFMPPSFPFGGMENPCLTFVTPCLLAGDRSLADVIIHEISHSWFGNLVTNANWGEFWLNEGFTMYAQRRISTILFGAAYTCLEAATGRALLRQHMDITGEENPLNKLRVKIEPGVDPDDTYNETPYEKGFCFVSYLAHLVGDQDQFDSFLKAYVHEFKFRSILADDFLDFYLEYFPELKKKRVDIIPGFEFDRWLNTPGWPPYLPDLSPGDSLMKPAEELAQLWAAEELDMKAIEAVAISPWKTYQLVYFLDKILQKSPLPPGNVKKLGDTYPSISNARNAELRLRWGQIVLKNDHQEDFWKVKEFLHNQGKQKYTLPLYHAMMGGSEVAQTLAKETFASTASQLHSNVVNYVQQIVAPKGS

## CC(C)C[C@H](NC(=O)[C@@H](O)[C@H](N)Cc1ccccc1)C(=O)O [bestatin, [(2S,3R)-3-amino-2-hydroxy-4-phenylbutanoyl]-L-leucine]
Male Charles River rats; 400 μg bestatin alone into lateral ventricle, Rat 2, 30 min
  Tail-flick latency: 8.00 s
Male Charles River rats; 400 μg bestatin alone into lateral ventricle, Rat 2, 35 min
  Tail-flick latency: 8.00 s
Male Charles River rats; 400 μg bestatin alone into lateral ventricle, Rat 2, 40 min
  Tail-flick latency: 8.00 s
Male Charles River rats; 400 μg bestatin alone into lateral ventricle, Rat 2, 45 min
  Tail-flick latency: 8.00 s
Male Charles River rats; 400 μg bestatin alone into lateral ventricle, Rat 2, 50 min
  Tail-flick latency: 8.00 s
Male Charles River rats; 400 μg bestatin alone into lateral ventricle, Rat 2, 55 min
  Tail-flick latency: 8.00 s
Male Charles River rats; 400 μg bestatin alone into lateral ventricle, Rat 2, 60 min
  Tail-flick latency: 8.00 s
Male Charles River rats; 400 μg bestatin alone into lateral ventricle, Rat 2, 75 min
  Tail-flick latency: 8.00 s
Male Charles River rats; 400 μg bestatin alone into lateral ventricle, Rat 2, 90 min
  Tail-flick latency: 8.00 s
Male Charles River rats; 400 μg bestatin alone into lateral ventricle, Rat 2, 105 min
  Tail-flick latency: 8.00 s
Male Charles River rats; 400 μg bestatin alone into lateral ventricle, Rat 2, 120 min
  Tail-flick latency: 8.00 s
Male Charles River rats; 400 μg bestatin alone into lateral ventricle, Rat 2, 135 min
  Tail-flick latency: 8.00 s
Male Charles River rats; 400 μg bestatin alone into lateral ventricle, Rat 2, 150 min
  Tail-flick latency: 8.00 s
Male Charles River rats; 400 μg bestatin alone into lateral ventricle, Rat 2, 165 min
  Tail-flick latency: 8.00 s
Male Charles River rats; 400 μg bestatin alone into lateral ventricle, Rat 2, 180 min
  Tail-flick latency: 8.00 s
Male Charles River rats; 400 μg bestatin alone into lateral ventricle, Rat 2, 195 min
  Tail-flick latency: 8.00 s
Male Charles River rats; 400 μg bestatin alone into lateral ventricle, Rat 2, 210 min
  Tail-flick latency: 8.00 s
Male Charles River rats; 400 μg bestatin alone into lateral ventricle, Rat 2, 225 min
  Tail-flick latency: 8.00 s
Male Charles River rats; 400 μg bestatin alone into lateral ventricle, Rat 2, 240 min
  Tail-flick latency: 8.00 s
Male Charles River rats; 400 μg bestatin alone into lateral ventricle, Rat 2, 255 min
  Tail-flick latency: 8.00 s
Male Charles River rats; 400 μg bestatin alone into lateral ventricle, Rat 2, 270 min
  Tail-flick latency: 8.00 s
Male Charles River rats; 400 μg bestatin alone into lateral ventricle, Rat 2, 285 min
  Tail-flick latency: 8.00 s
Male Charles River rats; 400 μg bestatin alone into lateral ventricle, Rat 2, 300 min
  Tail-flick latency: 5.19 s
Male Charles River rats; 400 μg bestatin alone into lateral ventricle, Rat 2, 315 min
  Tail-flick latency: 4.32 s
Male Charles River rats; 400 μg bestatin alone into lateral ventricle, Rat 2, 330 min
  Tail-flick latency: 4.11 s
Male Charles River rats; 400 μg leucine-enkephalin + 200 μg bestatin injected together into lateral ventricle, 1 rat, 2 min
  Tail-flick latency: 7.31 s
Male Charles River rats; 400 μg leucine-enkephalin + 200 μg bestatin injected together into lateral ventricle, 1 rat, 4 min
  Tail-flick latency: 7.56 s
Male Charles River rats; 400 μg leucine-enkephalin + 200 μg bestatin injected together into lateral ventricle, 1 rat, 6 min
  Tail-flick latency: 5.78 s
Male Charles River rats; 400 μg leucine-enkephalin + 200 μg bestatin injected together into lateral ventricle, 1 rat, 8 min
  Tail-flick latency: 6.69 s
Male Charles River rats; 400 μg leucine-enkephalin + 200 μg bestatin injected together into lateral ventricle, 1 rat, 10 min
  Tail-flick latency: 6.99 s
Male Charles River rats; 400 μg leucine-enkephalin + 200 μg bestatin injected together into lateral ventricle, 1 rat, 12 min
  Tail-flick latency: 8.00 s
Male Charles River rats; 400 μg leucine-enkephalin + 200 μg bestatin injected together into lateral ventricle, 1 rat, 14 min
  Tail-flick latency: 8.00 s
Male Charles River rats; 400 μg leucine-enkephalin + 200 μg bestatin injected together into lateral ventricle, 1 rat, 16 min
  Tail-flick latency: 6.50 s
Male Charles River rats; 400 μg leucine-enkephalin + 200 μg bestatin injected together into lateral ventricle, 1 rat, 18 min
  Tail-flick latency: 5.31 s
Male Charles River rats; 400 μg leucine-enkephalin + 200 μg bestatin injected together into lateral ventricle, 1 rat, 20 min
  Tail-flick latency: 2.31 s
Male Charles River rats; 400 μg leucine-enkephalin + 200 μg bestatin injected together into lateral ventricle, 1 rat, 22 min
  Tail-flick latency: 8.00 s
Male Charles River rats; 400 μg leucine-enkephalin + 200 μg bestatin injected together into lateral ventricle, 1 rat, 24 min
  Tail-flick latency: 6.23 s
Male Charles River rats; 400 μg leucine-enkephalin + 200 μg bestatin injected together into lateral ventricle, 1 rat, 26 min
  Tail-flick latency: 8.00 s
Male Charles River rats; 400 μg leucine-enkephalin + 200 μg bestatin injected together into lateral ventricle, 1 rat, 28 min
  Tail-flick latency: 8.00 s
Male Charles River rats; 400 μg leucine-enkephalin + 200 μg bestatin injected together into lateral ventricle, 1 rat, 30 min
  Tail-flick latency: 8.00 s
Male Charles River rats; 400 μg leucine-enkephalin + 200 μg bestatin injected together into lateral ventricle, 1 rat, 32 min
  Tail-flick latency: 4.90 s
Male Charles River rats; 400 μg leucine-enkephalin + 200 μg bestatin injected together into lateral ventricle, 1 rat, 34 min
  Tail-flick latency: 8.00 s
Male Charles River rats; 400 μg leucine-enkephalin + 200 μg bestatin injected together into lateral ventricle, 1 rat, 36 min
  Tail-flick latency: 8.00 s
Male Charles River rats; 400 μg leucine-enkephalin + 200 μg bestatin injected together into lateral ventricle, 1 rat, 38 min
  Tail-flick latency: 4.75 s
Male Charles River rats; 400 μg leucine-enkephalin + 200 μg bestatin injected together into lateral ventricle, 1 rat, 40 min
  Tail-flick latency: 8.00 s
Male Charles River rats; 400 μg leucine-enkephalin + 200 μg bestatin injected together into lateral ventricle, 1 rat, 42 min
  Tail-flick latency: 3.21 s
Male Charles River rats; 400 μg leucine-enkephalin + 200 μg bestatin injected together into lateral ventricle, 1 rat, 44 min
  Tail-flick latency: 3.29 s
Male Charles River rats; 400 μg leucine-enkephalin + 200 μg bestatin injected together into lateral ventricle, 1 rat, 46 min
  Tail-flick latency: 2.47 s
Male Charles River rats; 400 μg level, lateral ventricle, rats
  Analgesia induced by bestatin alone: very potent analgesia
Male Charles River rats; bestatin administered one hour prior to leucine-enkephalin, intraventricular, rat
  Effect on the analgesic effects of leucine-enkephalin: can be extended by bestatin
Male Charles River rats; bestatin given simultaneously with leucine-enkephalin, intraventricular, rat
  Effect on the analgesic effect of leucine-enkephalin: very significantly extend the analgesic effect of leucine-enkephalin
Aminopeptidase B
  Inhibition of aminopeptidase B: inhibitors
Leucine aminopeptidase
  Inhibition of leucine aminopeptidase: inhibitors
Bleomycin hydrolase
  Inhibition of bleomycin hydrolase: inhibitors
